Experimental data as given in patent US20070197470A1, “Use of n-acetyl-d-aminogylcosamine in preparation of drugs for modulating microorganisms on mucous membrane” (priority 2003, published 2007).
“Also recorded” adds a separate entry of the source.

How the values were obtained:
Pseudomonas aeruginosa = assay: Tests of bacterial colonization resistance; format: in vivo; conditions: intestinal mucosa of test animals, different concentrations
Procedure: Pseudomonas aeruginosa is used in the tests of bacterial colonization resistance of the compound of formula (I). The intestinal mucosa of test animals that were pre-administrated with Pseudomonas aeruginosus and were treated by the compound of formula (I) with different concentrations was detected by in situ colonization, qualitative and quantitative methods.

Proteus Mirabilis = assay: Promoting wave test (bio-wave model); format: cell-based
Text: 1.1 Samples: Pure Compound of Formula (I)
• Strain: Proteus Mirabilis (which should comply with the following biological reaction characteristics: dynamics (+), urease (+), lactose (−), glucose (+), H2S (−), phenylalanine deaminase (+). • Culture medium: modified LB culture medium (the component of the composition are: 1% trytones, 0.5% yeast extract, 1% sodium chloride, 0.1% glucose, 0.002% TTC, and pH=7.2˜7.4). 1.3 Experimental Method:
The experiment adopted a bio-wave model for studying the promoting wave function of the compound of formula (I).

[1] = tested on: patients with symptoms of microecological imbalance; assay: Clinical trial, effects for regulating mucocutaneous microecology; format: in vivo, human
Text: (§1) 56 patients with symptoms of microecological imbalance, including 20 patients with oral complaints, such as halitosis, oral infections caused by clinically unknown pathogenic bacteria, 20 patients with subaxilary complaints, such as slimy sensation or bromidrosis, and 16 patients with low […] of gynecological genitourinary tract caused by unknown source of infectious pathogen, were separately treated by mouthwash or topical sprinkle of 1% N-acetyl-D-glucosamine aqueous solution twice daily for 7 days. […] Observation of effects of N-acetyl-D-glucosamine for regulating mucocutaneous microecology

[2] = in vivo
Text: • 1. Acute toxicity test: including tests of administrating medicine orally, intravenous injection and maximum limit amount for administration; • 2. Ames test; • 3. Micronucleus test of bone marrow cell of small mouse; • 4. Abnormal sexual test for the sperm of mouse; • 5. Abnormal aberrance test for the chromosin of mouse's testis; • 6. Chronic lethal test; • 7. Subchronic toxicity (feed for 90 days) test; • 8. Traditional deformity-inducing test;

[3] = tested on: flora of mucocutaneous microecology; assay: Clinical trial, detection of flora of mucocutaneous microecology (detection rates of various bacteria); format: in vivo, human
Text: as §1, with “Detection results” for “Observation”, “flora” for “effects”, “of” for “of N-acetyl-D-glucosamine for regulating”, “microecology regulated by N-acetyl-D-glucosamine (detection rates of various bacteria)” for “microecology”

[4] = Microecological imbalance of gynecological genitourinary tract, 16 cases
[5] = Subaxillary slimy sensation, 10 cases

Structure (SMILES): CC(=O)N[C@@H]1[C@@H](O)[C@H](O)[C@@H](CO)O[C@H]1O [N-acetyl-D-glucosamine]
- colonization resistance against Pseudomonas aeruginosa (Pseudomonas aeruginosa): increased with the increase of its concentration
- promoting wave function (Proteus Mirabilis): many fine waves on each ring emerged; also recorded: has promoting function to bio-waves
- total effective rate ([1]; 56 patients, 1% aqueous solution mouthwash or topical sprinkle twice daily for 7 days): 87.8%
- Cured ([1]; Bromidrosis, 10 cases): 5
- Effective ([1]; Bromidrosis, 10 cases): 3
- Effective rate (%) ([1]; Bromidrosis, 10 cases): 80%
- Ineffective ([1]; Bromidrosis, 10 cases): 2
- Cured [1, 4]: 7
- Effective [1, 4]: 6
- Effective rate (%) [1, 4]: 81.3%
- Ineffective [1, 4]: 3
- Cured ([1]; Oral compliant, 20 cases): 8
- Effective ([1]; Oral compliant, 20 cases): 10
- Effective rate (%) ([1]; Oral compliant, 20 cases): 90%
- Ineffective ([1]; Oral compliant, 20 cases): 2
- Cured [1, 5]: 7
- Effective [1, 5]: 3
- Effective rate (%) [1, 5]: 100%
- Ineffective [1, 5]: 0
- acute test dosage relative to the injection dosage for human being [2]: 300 times
- dosage at which the acute toxicosis reaction had not appeared [2]: more than 2 g/kg
- maximum dosage with no intoxication reaction ([2]; 4 weeks): 1 g/kg
- detection rate of helicoids ([3]; Buccal cavity (salivary bacteria), after regulation, before regulation 12): helicoids (0)
- detection rate of corynebacterium diphtheroides ([3]; Buccal cavity (salivary bacteria), after regulation, before regulation 18): diphtheroides (8),
- detection rate of Streptococcus mutans ([3]; Buccal cavity (salivary bacteria), after regulation, before regulation 23): (7), streptococcus
- detection rate of streptococcus salivarius ([3]; Buccal cavity (salivary bacteria), after regulation, before regulation 40): salivarius (90),
- detection rate of Neisser's coccus ([3]; Buccal cavity (salivary bacteria), after regulation, before regulation 50): (95), corynebacterium
- detection rate of bacteroides ([3]; Buccal cavity (salivary bacteria), after regulation, before regulation 60): bacteroides (30),
- detection rate of aerobic coryneform bacteria ([3]; Skin of axillary fossa, after regulation, before regulation 18): bacteria (12), pityro-
- detection rate of Staphylococci ([3]; Skin of axillary fossa, after regulation, before regulation 20): Staphylococci (36),
- detection rate of pityrosporum furfur ([3]; Skin of axillary fossa, after regulation, before regulation 24): sporum furfur (15),
- detection rate of bacillus polymyxa odour ([3]; Skin of axillary fossa, after regulation, before regulation 40): odour (9)
- detection rate of bacillus acidi lactici ([3]; Woman's genitourinary tract, after regulation, before regulation 18): acidi lactici (60),
- detection rate of bacillus coli ([3]; Woman's genitourinary tract, after regulation, before regulation 29): bacillus coli (10)
- detection rate of Staphylococcus epidermidis ([3]; Woman's genitourinary tract, after regulation, before regulation 38): midis (35), bacillus
- change of flora after use ([3]; buccal cavity, skin of axillary fossa and woman's genitourinary tract): autochthonous flora increased and allochthonous flora decreased
